Where “and” joins values, the source holds several entries; their conditions need not be identical. Identical values can stand only once.
Assays:
Type in all cases: cell-based, human
[1] = test system: HIV-specific polyfunctional CD8 T cells; assay: Induced HIV-specific polyfunctional CD8+ T cells in PBMC cultures from HIV-1 infected subjects on cART
DCs = assay: Immune cell activation in PBMC cultures, flow cytometry: DCs; details: for DCs CD80 Fold / DCs CD69 Fold: 2 days, N = 4
Protocol: TLR8 is expressed on multiple immune cell subsets. To determine how treatment with a TLR8 modulating compound affects activation of distinct cell populations, PBMCs were purified from HIV-1 infected subjects on cART, as described in Example 121 (anonymized participant IDs 184, 185, 188, 189, 190, and 191). […] After incubation, PBMCs were harvested and stained with antibodies conjugated to specific fluorophores (BD Biosciences) to delineate immune cell subsets: CD4 T cells (CD3+CD4+CD8−), CD8 T cells (CD3+CD8+CD4−), NK cells (CD3−CD56+CD16+), monocytes (CD3−CD14+), B cells (CD3−CD19+), and peripheral dendritic cells (DCs), defined as positive for HLA-DR and negative for a panel of markers: CD3, CD14, CD16, CD19, CD20, CD56 (Lin-1 lineage panel, BD Biosciences).
Additional markers of activation, maturation, and effector function were included for cell subsets, as follows: CD4 and CD8 T cells (CD25, CD38, CD69, IFN-γ, granzyme B, perforin, TNF-α), NK cells (CD25, CD69, IFN-γ), monocytes (CD11c, CD16, CD80, CD86, CD163, TNF-α), B cells (CD40, CD69, CD80, CD86), and DC (CD11c, CD69, CD80, CD86, CD123, and CD163). Cells were stained for surface markers (CD3, CD4, CD8, CD11c, CD14, CD16, CD25, CD69, CD80, CD86, CD163), washed, treated with fixation and permeabilization buffer (eBioscience), and stained for intracellular markers (IFN-γ, granzyme B, perforin, TNF-α). Cells were evaluated by flow cytometry on a LSR Fortessa (BD Biosciences), and data was analyzed with FlowJo software (TreeStar).
Data are expressed as geometric mean percentage (%) and as geometric mean fold-activation (Fold) for each marker and for each PBMC subset obtained from 4 or 6 subjects, as indicated. Fold activation is calculated as a ratio of the % positive for each marker for each PBMC subset at the indicated concentration of the compound of Example 15 relative to % positive for DMSO treated samples. Fold activations that are 1.5 are in bold.

[2] = test system: PBMC cultures from HIV-1 infected subjects on cART; assay: Induced HIV-1 expression in PBMC cultures, HIV-1 RNA in supernatant after 4 days (COBAS TaqMan HIV-1 Test); details: for Geometric Mean with ≥2-Fold-Activation / Range with ≥2-Fold-Activation: N = 12; for N with ≥2-Fold-Activation: subjects; for Fold HIV-1 Activation: vs DMSO
Protocol: In some experiments, IL-15, the TLR8 modulating compound of Example 15 or the combination of IL-15 and Example 15 were used at the indicated concentrations (Table 4). The cultures were maintained in the presence of antivirals (elvitegravir and efavirenz at 100 nM each) to prevent viral spread and amplification in order to measure the quantity of virus produced (latency reversal) by the TLR8 modulating compounds. At the end of the incubation period, cell-free culture supernatants were harvested and HIV-1 RNA levels were quantified by the COBAS® AmpliPrep/COBAS®TaqMan HIV-1 Test, v2.0 (Roche).
In each table, fold-activation is calculated as a ratio of HIV-1 RNA copies per ml of cell culture supernatants from TLR8 agonist treated samples and DMSO treated controls. Geometric mean fold-activation from three independent incubation samples for each condition of each subject's PBMCs. Values in bold indicate ≥2-fold HIV activation.
To assess if the latency reversal induced by TLR8 agonism could further potentiate latency reversal by a separate mechanisms, we treated cells as described above with IL-15, Example 15, or a combination of IL-15 and Example 15 (Table 4).

`CCCC[C@H](CO)Nc1nc(N)nc2cccnc12` [Example 15] was tested. Which “Patients in whom increases in HIV-specific polyfunctional CD8 T cells were seen” value ([1]; 100 nM) did it give?
Its value is 3 of 5.

And the “Median HIV-specific polyfunctional CD8 T cells (% proliferating CD8+ cells double positive for IFN-γ and TNF-α)” value ([1]; 100 nM, HIV peptide pool, 5 subjects)?
Its value is 0.99%.

And the “Patients in whom increases in HIV-specific polyfunctional CD8 T cells were seen” value ([1]; 1000 nM)?
The value was 4 of 5.

What about the “Fold increase of median HIV-specific polyfunctional CD8 T cells” value ([1]; 1000 nM with HIV specific peptide pool vs vehicle, p<0.05) of the same compound?
Its value is 2.7 fold.

What about the “DCs CD80 Fold” value (DCs; 10 nM vs DMSO) of the same compound?
The value was 1.8 fold.

And the “DCs CD69 Fold” value (DCs; 100 nM vs DMSO)?
The value was 0.4 fold.

What about the “DCs CD80 Fold” value (DCs; 100 nM vs DMSO) of the same compound?
Its value is 2.4 fold.

What about the “DCs CD69 Fold” value (DCs; 1000 nM vs DMSO) of the same compound?
Its value is 3.3 fold.

What about the “DCs CD80 Fold” value (DCs; 1000 nM vs DMSO) of the same compound?
The value was 2.9 fold.

What about the “DCs CD69 Fold” value (DCs; 3000 nM vs DMSO) of the same compound?
Its value is 8.9 fold.

What about the “DCs CD80 Fold” value (DCs; 3000 nM vs DMSO) of the same compound?
The value was 2.0 fold.

And the “Concentration of maximal activation of DCs” value (DCs; increased expression of CD69)?
The value was 3000 nM.

What about the “Concentration of maximal activation of DCs” value (DCs; increased expression of CD80) of the same compound?
Its value is 1000 nM.

And the “Subjects with ≥2-Fold-Activation (%)” value ([2]; 10 nM)?
The value was “(42) %”.

And the “Geometric Mean with ≥2-Fold-Activation” value ([2]; 10 nM)?
Its value is 4.6 fold.

What about the “Range with ≥2-Fold-Activation” value ([2]; 10 nM) of the same compound?
The value was 2.2-20.1 fold.

And the “N with ≥2-Fold-Activation” value ([2]; 10 nM)?
Its value is 5 of 12.

And the “Fold HIV-1 Activation” value ([2]; 10 nM, one value per subject (IDs 172-183))?
Its value is 2.6 fold and 2.2 fold and 4.7 fold and 1.2 fold and 1.9 fold and 1.3 fold and 0.3 fold and 0.5 fold and 1.0 fold and 4.1 fold and 0.8 fold.

What about the “Subjects with ≥2-Fold-Activation (%)” value ([2]; 100 nM) of the same compound?
Its value is “(33) %”.

What about the “Geometric Mean with ≥2-Fold-Activation” value ([2]; 100 nM) of the same compound?
Its value is 4.8 fold.

What about the “Range with ≥2-Fold-Activation” value ([2]; 100 nM) of the same compound?
The value was 2.2-10.1 fold.

And the “N with ≥2-Fold-Activation” value ([2]; 100 nM)?
Its value is 4 of 12.

And the “Fold HIV-1 Activation” value ([2]; 100 nM, one value per subject (IDs 172-183))?
The value was 3.8 fold and 6.6 fold and 2.2 fold and 1.5 fold and 1.0 fold and 0.5 fold and 0.2 fold and 0.1 fold and 0.7 fold and 1.8 fold and 1.3 fold.

What about the “Subjects with ≥2-Fold-Activation (%)” value ([2]; 1,000 nM) of the same compound?
The value was “(58) %”.

And the “Geometric Mean with ≥2-Fold-Activation” value ([2]; 1,000 nM)?
Its value is 3.4 fold.

And the “Range with ≥2-Fold-Activation” value ([2]; 1,000 nM)?
Its value is 2.4-5.7 fold.

What about the “N with ≥2-Fold-Activation” value ([2]; 1,000 nM) of the same compound?
The value was 7 of 12.

And the “Fold HIV-1 Activation” value ([2]; 1,000 nM, one value per subject (IDs 172-183))?
Its value is 2.7 fold and 2.4 fold and 3.3 fold and 1.2 fold and 4.7 fold and 0.3 fold (2×) and 3.4 fold and 3.0 fold and 1.3 fold and 1.6 fold and 5.7 fold.

What about the “Geometric Mean with ≥2-Fold-Activation” value ([2]; 10, 100, or 1000 nM) of the same compound?
Its value is 4.4 fold.

And the “Range with ≥2-Fold-Activation” value ([2]; 10, 100, or 1000 nM)?
The value was 2.2-20.1 fold.

And the “N with ≥2-Fold-Activation” value ([2]; 10, 100, or 1000 nM)?
Its value is 9 out of 12 and 9 of 12.

What about the “Subjects with ≥2-Fold-Activation (%)” value ([2]; Example 15 1000 nM) of the same compound?
The value was 50%.

And the “Fold HIV-1 Activation, Geometric Mean” value ([2]; Example 15 1000 nM, N = 6)?
Its value is 2.1 fold.

And the “N with ≥2-Fold-Activation” value ([2]; Example 15 1000 nM)?
Its value is 3 of 6.

And the “Fold HIV-1 Activation” value ([2]; Example 15 1000 nM, one value per subject (IDs 205-210))?
Its value is 0.6 fold and 4.7 fold and 0.8 fold and 9.7 fold and 2.0 fold and 1.9 fold.
